# Results reported in patent US11666640B2, “Glucose oxidase compositions as a neonate anticonvulsant” (PENN STATE RESEARCH FOUNDATION, priority 2018, dated 2023).
# “Also recorded” adds a separate entry of the source.
# What was measured:
# [1] = tested on: KA induced neonatal seizure; assay: KA-induced neonatal seizure, in vivo EEG recording; settings: NaGcA 2 g/kg i.p. about 1 hr after KA, P10-12 rat; sodium salt
# [2] = tested on: GABA-induced neuronal activity; assay: Cell-attached recording of spike firing elicited by isoguvacine in CA3 pyramidal neurons; format: cell-based, mouse; settings: P8-9, isoguvacine 10 μM, 30 s
# Description: Besides EGABA, the effects of different drugs on GABA-induced neuronal activity during epileptogenesis were investigated in neonatal animals (e.g., P8-9). To accurately measure GABA-induced neuronal activity, cell-attached recordings monitored spike firing elicited by local application of the GABAA-R agonist isoguvacine (10 μM, 30 s). Tyzio et al., “Maternal oxytocin triggers a transient inhibitory switch in GABA signaling in the fetal brain during delivery” Science 314:1788-1792 (2006). […] FIG. 16K, control, (n=32). […] FIG. 16K, 0 Mg^2+ (n=19). […] FIG. 16K; 0 Mg^2++Bum (n=19); and 0 Mg^2++VU (n=21). […] FIG. 16K; 0 Mg^2++NaGcA (n=18).
# [3] = tested on: cultured neurons; assay: LIVE/DEAD viability assay, kainic acid (KA)-induced cell death model; format: cell-based, mouse; settings: sodium salt
# Source text: Epileptic activity may induce cell death both in epileptic patients and animal models. Chen et al., “Differential roles of NR2A- and NR2B-containing NMDA receptors in activity-dependent brain-derived neurotrophic factor gene regulation and limbic epileptogenesis” The Journal Of Neuroscience: the official journal of the Society for Neuroscience 27:542-552 (2007); and Naseer et al., “Maternal epileptic seizure induced by pentylenetetrazol: apoptotic neurodegeneration and decreased GABAB1 receptor expression in prenatal rat brain” Molecular Brain 2:20 (2009). […] Wu et al., “Protective effect of resveratrol against kainate-induced temporal lobe epilepsy in rats” Neurochemical Research 34:1393-1400 (2009). In a control group, most neurons appeared to be healthy in morphology and were stained by calcein (green, live) but not ethidium homodimer-1 (EthD-1, red, death). See, FIG. 1J, left. […]
# A LIVE/DEAD® Viability/Cytotoxicity Assay Kit (L3224, Life Technologies) containing ethidium homodimer-1 and calcein-AM was used to examine cell viability. Ethidium homodimer-1 binds to cellular DNA and typically labels dead cells in red fluorescence, while Calcein-AM can be cleaved by esterases in live cells to give strong green fluorescence. […] Cell survival and death rate were measured by quantifying the percentage of green and red fluorescent cells, respectively. […]
# [4] = tested on: GABAA-R current; assay: GABAA-R current induced by isoguvacine before and after membrane depolarization (gramicidin-perforated recording); format: cell-based, mouse; settings: isoguvacine 100 μM; depolarization 40 mV, 10 s; NaGcA 20 mM
# Description: To investigate the effect of such long-lasting epileptiform bursts on GABA function, gramicidin-perforated whole-cell recordings were performed to keep the intracellular Cl− intact in neonatal animals. GABAA receptor (GABAA-R) currents induced by the receptor agonist isoguvacine (100 μM, 50 ms) before and after a membrane-depolarizing shift (40 mV for 10 s) that mimics the epileptiform burst activity. […] FIGS. 16B and 16C.
# [5] = tested on: PTZ-induced epileptic seizures; assay: PTZ-induced epileptiform activity in adult mice, EEG recording; format: in vivo, mouse; settings: PTZ 50 mg/kg i.p.
# Description: To test the in vivo anti-epilepsy effects of gluconate in neonatal and adult rodents, P8-12 Sprague-Dawley rats or 2-month old male C57BL/6 mice were deeply anesthetized with pentobarbital sodium (50 mg/kg for neonatal rat and 100 mg/kg for adult mice, intraperitoneal injection). Two stainless steel screws (1 mm in diameter) were inserted in the skull above the cortex as EEG recording electrodes, one ground electrode as well as one reference electrode were located +1.8 mm anterior to bregma, ±0.5 mm lateral to the midline, and 1 mm below the cortical surface. All electrodes were attached to a micro-connector and fixed onto the skull with dental cement. After surgery, neonatal rats were returned to their mothers and allowed to recover for 2 days prior to subsequent EEG recording. The adult mice were single housed in order to prevent damage of the implanted electrodes and allowed to recover at least 5 days before EEG recording.
# The baseline of EEG was recorded for 0.5-1 hr to allow the animal to adapt to the environment. Kainic acid (2 mg/kg) was administered intraperitoneally (i.p.) for neonatal epilepsy induction. D-gluconic acid sodium salt (2 g/kg) or 0.9% saline was injected i.p. 10 min after KA administration. […] Epileptiform activity was monitored for 1 hr after PTZ injection. […]
# Adult EEG signal were analyzed by spike 2 software (an analysis program for CED 1401, Cambridge, UK). […]
compound,measurement,setting,value
"O=C([O-])[C@H](O)[C@@H](O)[C@H](O)[C@H](O)CO.[Na+] [NaGcA, D-gluconic acid sodium salt]",stable epileptic activity induced by KA (acute effect),[1],gradually reduced; also recorded: significantly reduced; also recorded: still suppressed seizure activity
same,spike activity elicited by isoguvacine after 0 Mg2+ treatment,[2],essentially abolished
same,KA-induced neuronal death,"[3]; 10 μM KA for 24 hrs, co-application of 20 mM NaGcA",abolished; also recorded: neuron protection function
same,"neuron survival rate, NaGcA alone",[3]; 20 mM NaGcA alone,no side effect; also recorded: without any side effect
same,depolarization-induced enhancement of GABAA-R current,[4],strongly inhibited
same,epileptic burst activity induced by PTZ,[5],did not suppress the epileptic burst activity as effective
same,latency of epileptiform spikes or bursts induced by PTZ,"[5]; NaGcA 1 and 2 g/kg, sodium salt",prolonging the latency; also recorded: prolonged
